Source: BigSolDB 2.1

Cn1nccc1O
solubility (mole fraction)
Conditions	278.15 K	283.15 K	288.15 K	293.15 K	298.15 K	303.15 K	308.15 K	313.15 K	318.15 K
in ethanol	0.0822	0.0959	0.112	0.129	0.149	0.171	0.194	0.216	0.247
in ethyl acetate	0.000394	0.000668	0.00119	0.00222	0.00348	0.00603	0.00922	0.0154	0.0245
in isobutanol	0.1	0.118	0.138	0.161	0.183	0.208	0.242	0.272	0.308
in isopropanol	0.079	0.0911	0.106	0.122	0.141	0.162	0.186	0.209	0.24
in methanol	0.0905	0.107	0.126	0.146	0.172	0.201	0.234	0.266	0.308
in methyl acetate	0.00741	0.00888	0.0109	0.0128	0.0156	0.0187	0.0217	0.0258	0.0312
in n-butanol	0.0789	0.09	0.105	0.121	0.139	0.159	0.177	0.2	0.231
in n-butyl acetate	0.000681	0.00102	0.00149	0.00216	0.00302	0.00433	0.00601	0.00846	0.0125
in n-pentyl acetate	0.00428	0.00553	0.00705	0.0087	0.011	0.0138	0.0169	0.0201	0.0261
in n-propanol	0.0801	0.0922	0.109	0.127	0.143	0.165	0.185	0.211	0.245
in n-propyl acetate	0.000277	0.0005	0.000774	0.00138	0.00218	0.0032	0.00511	0.00843	0.0124
in sec-butanol	0.0889	0.101	0.117	0.135	0.154	0.173	0.195	0.219	0.251
